Assays:
FAAH [1] = target: T1, FAAH (Mus musculus (Mouse), UniProt O08914); assay: In vitro competitive activity-based protein profiling, mouse proteomes (brain membrane fraction or cell lysates); type: biochemical; details: mouse proteome, read-out: FAAH % inh. 1 μM (mouse)
Procedure, shortened: (§1)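 Activity of MAGL and FAAH was quantified from fluorescent gel band intensities. Beforehand, inhibitors at several concentrations competed against subsequent probe labelling (FP-Rh, JW912 or HT-01) in species-matched proteomes, each step 30 min at 37° C.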

MAGL [2] = target: T2, MAGL (Mus musculus (Mouse), UniProt O35678); assay: as above; type: biochemical; details: mouse proteome, read-out: MAGL % inh. 1 μM (mouse)
T2 sequence (O35678 whole entry): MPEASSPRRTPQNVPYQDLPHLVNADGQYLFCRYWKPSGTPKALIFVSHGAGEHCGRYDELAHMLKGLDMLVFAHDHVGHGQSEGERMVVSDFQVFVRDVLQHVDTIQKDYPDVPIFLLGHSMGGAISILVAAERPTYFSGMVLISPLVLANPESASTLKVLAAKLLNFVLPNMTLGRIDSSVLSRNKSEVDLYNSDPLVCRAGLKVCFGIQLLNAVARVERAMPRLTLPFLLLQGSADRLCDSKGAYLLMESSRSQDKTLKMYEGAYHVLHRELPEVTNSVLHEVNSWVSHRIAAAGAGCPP
Procedure, shortened: as §1

FAAH [3] = target: T1, FAAH; assay: Mouse brain proteomes from inhibitor treated mice (oral gavage, sacrificed 4 h after administration); type: in vivo; details: 5 mg/kg oral gavage
Description: (§2) Preparation of Mouse Brain Proteomes from Inhibitor Treated Mice.
(§3) Inhibitors were administered to wild-type C57B1/6J by oral gavage in a vehicle of polyethylene glycol. Each animal was sacrificed 4 h following administration and brain proteomes were prepared and analyzed according to previously established methods (See Niphakis, M. J., et al. (2011) ACS Chem. Neurosci. and Long, J. Z., et al. Nat. Chem. Biol. 5:37-44).

MAGL [4] = target: T2, MAGL; assay: as above; type: in vivo; details: 5 mg/kg oral gavage
Description: as §2, §3

MAGL [5] = target: MAGL (Homo sapiens (Human), UniProt Q99685); assay: In vitro competitive activity-based protein profiling, human proteomes (prefrontal cortex or PC3 cell membrane fractions); type: biochemical; details: human proteome; for inhibition at 1 µM: read-out: MAGL % inh. 1 μM (human)
MAGL (Homo sapiens (Human), UniProt Q99685), sequence (Q99685 whole entry): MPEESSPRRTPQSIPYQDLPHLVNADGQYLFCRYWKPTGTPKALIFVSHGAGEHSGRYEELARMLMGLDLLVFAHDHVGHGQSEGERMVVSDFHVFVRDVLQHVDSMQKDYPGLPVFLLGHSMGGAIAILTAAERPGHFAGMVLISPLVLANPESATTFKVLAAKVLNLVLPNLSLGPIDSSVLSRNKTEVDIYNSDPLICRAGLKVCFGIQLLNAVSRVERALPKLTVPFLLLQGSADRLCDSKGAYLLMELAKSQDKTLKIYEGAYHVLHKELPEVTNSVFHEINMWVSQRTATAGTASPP
Procedure, shortened: as §1

FAAH [6] = target: FAAH (Homo sapiens (Human), UniProt O00519); assay: as above; type: biochemical; details: human proteome; for inhibition at 1 µM: read-out: FAAH % inh. 1 μM (human)
FAAH (Homo sapiens (Human), UniProt O00519), sequence (O00519 whole entry): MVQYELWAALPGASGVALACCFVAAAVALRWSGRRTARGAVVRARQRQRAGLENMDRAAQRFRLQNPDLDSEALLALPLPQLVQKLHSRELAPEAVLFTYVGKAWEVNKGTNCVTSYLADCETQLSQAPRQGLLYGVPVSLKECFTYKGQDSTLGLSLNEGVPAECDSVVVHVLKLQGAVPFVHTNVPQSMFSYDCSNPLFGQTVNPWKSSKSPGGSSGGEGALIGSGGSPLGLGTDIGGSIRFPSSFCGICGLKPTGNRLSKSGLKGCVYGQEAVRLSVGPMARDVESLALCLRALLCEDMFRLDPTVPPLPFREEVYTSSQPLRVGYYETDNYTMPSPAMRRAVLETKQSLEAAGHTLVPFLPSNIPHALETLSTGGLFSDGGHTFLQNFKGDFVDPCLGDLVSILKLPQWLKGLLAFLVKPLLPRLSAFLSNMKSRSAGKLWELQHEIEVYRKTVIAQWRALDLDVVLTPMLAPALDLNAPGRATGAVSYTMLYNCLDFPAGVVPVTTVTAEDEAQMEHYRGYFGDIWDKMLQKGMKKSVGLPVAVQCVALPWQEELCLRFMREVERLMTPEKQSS
Procedure, shortened: as §1

T1 sequence (O08914 whole entry): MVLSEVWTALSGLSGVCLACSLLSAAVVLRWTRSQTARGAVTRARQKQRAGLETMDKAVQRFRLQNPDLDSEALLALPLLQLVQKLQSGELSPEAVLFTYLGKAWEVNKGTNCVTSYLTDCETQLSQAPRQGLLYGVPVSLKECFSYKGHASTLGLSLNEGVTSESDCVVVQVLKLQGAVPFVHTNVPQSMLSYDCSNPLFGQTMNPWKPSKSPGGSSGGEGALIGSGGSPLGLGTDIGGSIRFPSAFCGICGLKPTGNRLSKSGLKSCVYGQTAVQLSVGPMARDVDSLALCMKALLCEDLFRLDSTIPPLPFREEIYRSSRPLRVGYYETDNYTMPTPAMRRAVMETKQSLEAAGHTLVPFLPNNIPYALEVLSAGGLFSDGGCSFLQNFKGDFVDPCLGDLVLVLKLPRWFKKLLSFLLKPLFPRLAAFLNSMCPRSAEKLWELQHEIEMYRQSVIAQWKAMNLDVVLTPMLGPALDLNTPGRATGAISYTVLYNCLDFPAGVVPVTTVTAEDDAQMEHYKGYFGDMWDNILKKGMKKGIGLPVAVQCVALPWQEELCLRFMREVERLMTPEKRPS

Row | inhibition at 1 µM (FAAH [1]) | inhibition at 1 µM (MAGL [2]) | inhibition at 1 µM (MAGL [5]) | inhibition at 1 µM (FAAH [6]) | IC50 (MAGL [5]) | IC50 (FAAH [6]) | SMILES | FAAH % inh. 5 mg/kg (mouse) (FAAH [3]) | MAGL % inh. 5 mg/kg (mouse) (MAGL [4])
1 | 0 to 25% | > 75% | > 75% | 0 to 25% |  |  | CS(=O)(=O)Nc1ccn(C(=O)N2CCN(Cc3ccc(C(F)(F)F)c(N4CC[C@H](F)C4)c3)CC2)n1 [Example 119, (S)-N-(1-(4-(3-(3-Fluoropyrrolidin-1-yl)-4-(trifluoromethyl)benzyl)piperazine-1-carbonyl)-1H-pyrazol-3-yl)methanesulfonamide] | D (% inhibition is greater than or equal to 0% and less than 25%) | A (% inhibition is greater than or equal to 75%)
2 | 0 to 25% | > 75% | > 75% | 0 to 25% |  |  | CS(=O)(=O)Nc1ccn(C(=O)N2CCC3(CCN(Cc4ccc(C(F)(F)F)cc4N4CCCC4)C3)CC2)n1 [Example 58, N-(1-(2-(2-(Pyrrolidin-1-yl)-4-(trifluoromethyl)benzyl)-2,8-diazaspiro[4.5]decane-8-carbonyl)-1H-pyrazol-3-yl)methanesulfonamide] | D (% inhibition is greater than or equal to 0% and less than 25%) | A (% inhibition is greater than or equal to 75%)
3 | 0 to 25% | > 75% | > 75% | 0 to 25% | < 0.1 µM | 1 to 10 µM | CS(=O)(=O)Nc1ccn(C(=O)N2CCC3(CCN(Cc4ccc(Cl)cc4N4CCCC4)C3)CC2)n1 [Example 63, N-(1-(2-(4-Chloro-2-(pyrrolidin-1-yl)benzyl)-2,8-diazaspiro[4.5]decane-8-carbonyl)-1H-pyrazol-3-yl)methanesulfonamide] | D (% inhibition is greater than or equal to 0% and less than 25%) | C (% inhibition is greater than or equal to 25% and less than 50%)
4 | 0 to 25% | > 75% | > 75% | 0 to 25% |  |  | CC(=O)N(Cc1ccc(C(F)(F)F)cc1N1CCCC1)C1(C)CCN(C(=O)n2ccc(NS(C)(=O)=O)n2)CC1 [Example 103, N-(4-Methyl-1-(3-(methylsulfonamido)-1H-pyrazole-1-carbonyl)piperidin-4-yl)-N-(2-(pyrrolidin-1-yl)-4-(trifluoromethyl)benzyl)acetamide] | D (% inhibition is greater than or equal to 0% and less than 25%) | D (% inhibition is greater than or equal to 0% and less than 25%)
5 | 0 to 25% | > 75% | > 75% | 0 to 25% |  |  | CS(=O)(=O)Nc1ccn(C(=O)N2CCN(Cc3ccc(C(F)(F)F)nc3N3CCCC3)CC2)n1 [Example 71, N-(1-(4-((2-(Pyrrolidin-1-yl)-6-(trifluoromethyl)pyridin-3-yl)methyl)piperazine-1-carbonyl)-1H-pyrazol-3-yl)methanesulfonamide] | D (% inhibition is greater than or equal to 0% and less than 25%) | A (% inhibition is greater than or equal to 75%)

The remaining lines, values behind:

Row | SMILES | inhibition at 1 µM (FAAH [1]) | inhibition at 1 µM (MAGL [2]) | inhibition at 1 µM (MAGL [5]) | inhibition at 1 µM (FAAH [6]) | IC50 (MAGL [5]) | IC50 (FAAH [6]) | FAAH % inh. 5 mg/kg (mouse) (FAAH [3]) | MAGL % inh. 5 mg/kg (mouse) (MAGL [4])
6 | C[C@@H]1CN(C(=O)n2ccc(NS(C)(=O)=O)n2)CCN1Cc1ccc(Cl)c(N2CC3COCC3C2)c1 (stereo partly drawn) [Example 133, N-(1-((3R)-4-(4-Chloro-3-(tetrahydro-1H-furo[3,4-c]pyrrol-5(3H)-yl)benzyl)-3-methylpiperazine-1-carbonyl)-1H-pyrazol-3-yl)methanesulfonamide] | 0 to 25% | > 75% | > 75% | 0 to 25% |  |  | D (% inhibition is greater than or equal to 0% and less than 25%) | D (% inhibition is greater than or equal to 0% and less than 25%)
7 | CC(=O)Nc1ccn(C(=O)N2CCN(Cc3ccc(Cl)cc3OCCCC(=O)O)CC2)n1 [Example 106, 4-(2-((4-(3-Acetamido-1H-pyrazole-1-carbonyl)piperazin-1-yl)methyl)-5-chlorophenoxy)butanoic acid] | 0 to 25% | > 75% | > 75% | 0 to 25% |  |  | D (% inhibition is greater than or equal to 0% and less than 25%) | D (% inhibition is greater than or equal to 0% and less than 25%)
8 | CC(=O)Nc1ccn(C(=O)N2CCC(C)(N(C)Cc3cc(C(F)(F)F)cc(C4(C(=O)O)CCCC4)c3)CC2)n1 [Example 132, 1-(3-(((1-(3-Acetamido-1H-pyrazole-1-carbonyl)-4-methylpiperidin-4-yl)(methyl)amino)methyl)-5-(trifluoromethyl)phenyl)cyclopentane-1-carboxylic acid] | 0 to 25% | > 75% | > 75% | 0 to 25% | < 0.1 µM | 1 to 10 µM | D (% inhibition is greater than or equal to 0% and less than 25%) | D (% inhibition is greater than or equal to 0% and less than 25%)
9 | CC(=O)Nc1ccn(C(=O)N2CCC3(CCCN3Cc3ccc(C(F)(F)F)cc3NCCCC(=O)O)CC2)n1 [Example 79, 4-((2-((8-(3-Acetamido-1H-pyrazole-1-carbonyl)-1,8-diazaspiro[4.5]decan-1-yl)methyl)-5-(trifluoromethyl)phenyl)amino)butanoic acid] | 0 to 25% | > 75% | > 75% | 0 to 25% |  |  | D (% inhibition is greater than or equal to 0% and less than 25%) | D (% inhibition is greater than or equal to 0% and less than 25%)
10 | CC(=O)Nc1ccn(C(=O)N2CCC3(CCCN3C(=O)c3ccc(C#N)c(C4CC4)c3)CC2)n1 [Example 87, N-(1-(1-(4-Cyano-3-cyclopropylbenzoyl)-1,8-diazaspiro[4.5]decane-8-carbonyl)-1H-pyrazol-3-yl)acetamide] | 0 to 25% | > 75% | > 75% | 0 to 25% |  |  | D (% inhibition is greater than or equal to 0% and less than 25%) | D (% inhibition is greater than or equal to 0% and less than 25%)
11 | C[C@@H]1CN(C(=O)n2ccc(NS(C)(=O)=O)n2)CCN1Cc1ccc(Cl)c(N2CCC(F)CC2)c1 [Example 138, (R)-N-(1-(4-(4-Chloro-3-(4-fluoropiperidin-1-yl)benzyl)-3-methylpiperazine-1-carbonyl)-1H-pyrazol-3-yl)methanesulfonamide] | 0 to 25% | > 75% | > 75% | 0 to 25% |  |  | D (% inhibition is greater than or equal to 0% and less than 25%) | A (% inhibition is greater than or equal to 75%)
12 | C[C@@H]1CN(Cc2ccc(Cl)c(N3CC4COCC4C3)c2)CCN1C(=O)n1ccc(NS(C)(=O)=O)n1 (stereo partly drawn) [Example 137, N-(1-((2R)-4-(4-Chloro-3-(tetrahydro-1H-furo[3,4-c]pyrrol-5(3H)-yl)benzyl)-2-methylpiperazine-1-carbonyl)-1H-pyrazol-3-yl)methanesulfonamide] | 0 to 25% | > 75% | > 75% | 0 to 25% |  |  | D (% inhibition is greater than or equal to 0% and less than 25%) | D (% inhibition is greater than or equal to 0% and less than 25%)
13 | C[C@H](c1ccc(Cl)c(N2CCC(F)CC2)c1)N1CCN(C(=O)n2ccc(NS(C)(=O)=O)n2)CC1 [Example 139, (R)-N-(1-(4-(1-(4-Chloro-3-(4-fluoropiperidin-1-yl)phenyl)ethyl)piperazine-1-carbonyl)-1H-pyrazol-3-yl)methanesulfonamide] | 0 to 25% | > 75% | > 75% | 0 to 25% | < 0.1 µM | 1 to 10 µM | D (% inhibition is greater than or equal to 0% and less than 25%) | D (% inhibition is greater than or equal to 0% and less than 25%)
14 | CC(=O)Nc1ccn(C(=O)N2CCN(Cc3ccc(Cl)cc3NCC(=O)O)CC2)n1 [Example 108, (2-((4-(3-Acetamido-1H-pyrazole-1-carbonyl)piperazin-1-yl)methyl)-5-chlorophenyl)glycine] | 0 to 25% | > 75% | > 75% | 0 to 25% |  |  | D (% inhibition is greater than or equal to 0% and less than 25%) | D (% inhibition is greater than or equal to 0% and less than 25%)

Reference: patent US11149037B2, “Pyrazole MAGL inhibitors” (H. Lundbeck A/S, priority 2017, dated 2021)
